Experimental data published in patent US12533427B2, “Radioactive antitumor agent” (National Institutes for Quantum Science and Technology, priority 2017, dated 2026).

Key:
[1] = Measurement of biochemical parameters (liver and renal function) in non-tumor-bearing mice; type: in vivo, mouse; conditions: any administration group; plasma, day 49
Description: (§1) In each of the following evaluations, data were presented as mean value±standard deviation. Two-way analysis of variance was used in the significant difference test of the data, excluding the survival curve. A Log-rank test was used for the data of the survival curve. Significant levels used were all 5%.
To evaluate side effects, biochemical parameters were measured using non-tumor-bearing mice (n=5/group) treated in a manner similar to the tumor-bearing mice described above.
The measurements of biochemical parameters were performed by measuring amounts of glutamate pyruvate transaminase and alkaline phosphatase for liver function and amounts of urea nitrogen and creatinine for renal function using mouse plasma prepared from blood collected from heart on day 49 after the first administration of ^64Cu-ATSM, with a blood biochemical analyzer (FUJI DRI-CHEM 7000VZ, manufactured by FUJIFILM Corporation).

CD133-positive cells = conditions: Non-Patent Literature 2; cited from earlier work
[2] = Internal exposure dose estimate for human
Description: Meanwhile, the internal exposure dose with ^64Cu-ATSM was maximum in the liver, and was 0.108 mSv/MBq. This means that when 150 MBq/kg of ^64Cu-ATSM is administered to a human weighing 60 kg, the exposure dose is 16.2 mGy/kg for the liver and 972 mSv for the whole body. When this exposure dose is applied to normal radiotherapy, it corresponds to an exposure equal to single irradiation of 1.215 Gy, which is lower than the single irradiation dose (1.8 to 2.0 Gy) of normal split irradiation in radiotherapy. Also, when 450 MBq/kg is administered to a human weighing 60 kg, the exposure dose is 48.6 mGy/kg for the liver and 2,916 mSv for the whole body. Since the tolerance dose of the liver in normal split irradiation is 30 Gy as a dose that causes side effects in 5% in 5 years, the total dose when administered a total of four times during normal radiotherapy of about 3 Gy will be 11.66 Gy, which is lower than the tolerance dose of the liver described above.
The present inventors have also reported estimates of irradiation doses of ^64Cu-ATSM for human based on in vivo distribution in normal mouse tissue (see, Yoshii Y, Furukawa T, Matsumoto H, Yoshimoto M, Kiyono Y, Zhang M R, Fujibayashi Y, and Saga T (2016) Cu-ATSM therapy targets regions with activated DNA repair and enrichment of CD133 cells in an HT-29 tumor model: Sensitization with a nucleic acid antimetabolite. Cancer Lett 376: 74-82 and Yoshii Y, Matsumoto H, Yoshimoto M, Furukawa T, Morokoshi Y, Sogawa C, Zhang M R, Wakizaka H, Yoshii H, Fujibayashi Y, and Saga T (2014) Controlled administration of penicillamine reduces radiation exposure in critical organs during ^64Cu-ATSM internal radiotherapy: a novel strategy for liver protection. PloS one 9: e86996). […] Thus, doses in the multiple administration of ^64Cu-ATSM to human according to the present invention can be determined as appropriate based on data of therapeutic effect and toxicity in mouse in the present invention. PET imaging of ^64Cu-ATSM may also be performed to monitor the irradiation dose of tumors and tissues during ^64Cu-ATSM therapy for human according to the present invention, thereby enabling theranostics of cancer.

[3] = system: U87MG cells from human glioblastoma; assay: Survival curve for 80 days of U87MG tumor-bearing mice; type: in vivo, BALB/c nude mouse
Description: (§2) U87MG cells from human glioblastoma were purchased from ATCC, and utilized after growing. A U87MG tumor-bearing model was made by implanting 1×10^7 U87MG cells subcutaneously into the flanks of BALB/c nude mouse (male, 6 weeks old, weighing approximately 20 to 25 g, obtained from Japan SLC). The tumor-bearing mice were subjected to tests when the tumor diameter reached around 5 mm after transplantation of U87MG cells.
(§3) The tumor-bearing mice were randomized into […] (n=7/group), and were intravenously administered with different single doses of ^64Cu-ATSM with 18.5, 37, 74, 111 and 148 MBq, and physiological saline as a control, respectively. To the remaining one group, ^64Cu-ATSM was administered intravenously at a dose of 37 MBq on days 0, 7, 21 and 28 of four times in total (37 MBq×4).
as §1
After the start of the study, the mice were slaughtered at the time when the tumor volume reached the humanitarian endpoint. Survivability for 80 days was observed, and the survival rate was calculated.

[4] = system: glioblastoma showing high HIF-1α expression; conditions: clinical PET investigations; cited from earlier work
[5] = Measurement of hematological parameters in non-tumor-bearing mice; type: in vivo, mouse
Description: as §1
To evaluate side effects, hematological parameters were measured using non-tumor-bearing mice (n=5/group) treated in a manner similar to the tumor-bearing mice described above.
The measurement of hematological parameters was performed by measuring concentrations of white blood cells, red blood cells and platelets using blood collected from the vein at the start point (day 0) immediately before administration of ^64Cu-ATSM and on days 2, 7, 14, 21, 28, 35, 42 and 49 after administration of ^64Cu-ATSM, with a blood analyzer (Celltac MEK-6458, manufactured by NIHON KOHDEN CORPORATION).

[6] = system: CD133-positive cells in tumors; conditions: Non-Patent Literatures 3 and 4; cited from earlier work
[7] = Body weight change of U87MG tumor-bearing mice; type: in vivo, BALB/c nude mouse
Description: as §3, §1
(§4) After the start of the study, mice were weighed twice a week over time, and the size of the tumor was measured with a caliper. The tumor volume was calculated with the formula: tumor volume=length×width^2×π/6, and the tumor volume on each day was expressed as a percentage relative to the initial tumor volume on day 0.

[8] = system: U87MG cells from human glioblastoma; assay: Tumor growth in U87MG tumor-bearing mouse; type: in vivo, BALB/c nude mouse; conditions: for rate of tumor volume ratio to tumor volume ratio of the control group on day 39: single i.v. administration
Description: as §2, §3, §1, §4

[9] = therapeutic dose calculated from 37 MBq per mouse; cited from earlier work
[10] = 150 MBq/kg to a human weighing 60 kg
[11] = 450 MBq/kg to a human weighing 60 kg
[12] = 37 MBq four-time administration (37 MBq×4)
[13] = 111 and 148 MBq single administration

radioactive diacetyl-bis(N4-methylthiosemicarbazone) copper complex [^64Cu-ATSM]
alkaline phosphatase (ALP) compared to control [1]: no significant differences | blood urea nitrogen (BUN) compared to control [1]: no significant differences | creatinine (CRE) compared to control [1]: no significant differences | glutamate pyruvate transaminase (GPT) compared to control [1]: no significant differences | accumulation in cells (CD133-positive cells): accumulates in CD133-positive cells | exposure dose for the liver [2, 10]: 16.2 mGy/kg | exposure dose for the whole body [2, 10]: 972 mSv | exposure equal to single irradiation of normal radiotherapy [2, 10]: 1.215 Gy | exposure dose for the liver [2, 11]: 48.6 mGy/kg | exposure dose for the whole body [2, 11]: 2,916 mSv | total dose when administered a total of four times ([2]; 450 MBq/kg to a human weighing 60 kg, four times): 11.66 Gy | internal exposure dose, liver (maximum organ) ([2]; liver): 0.108 mSv/MBq | survival rate compared to the control group ([3]; 37, 74, 111 and 148 MBq single administration groups and 37 MBq×4 group, 80 days): higher than that of the control group | survival time compared to the 111 MBq single administration group [3, 12]: longer survival time than the 111 MBq single administration group, but no significant difference | life-extending effect compared to the control group, single administration groups ([3]; 111 MBq single administration): significant life-extending effect | survival effect among the single administration groups ([3]; 111 MBq single administration): highest survival effect | survival time compared to the 18.5, 37, 74 and 148 MBq single administration groups ([3]; 111 MBq single administration group and 37 MBq×4 group): significantly longer survival time | accumulation in tumor (PET) [4]: accumulates in highly malignant grade glioblastoma showing high HIF-1α expression | hematological toxicity ([5]; 37 MBq four-time administration (37 MBq×4), throughout the study period): no symptoms of hematological toxicity were observed | recovery of number of white blood cells ([5]; 74, 111 and 148 MBq single administration): recovered to normal on day 21 | number of white blood cells (WBC) ([5]; 74 and 111 MBq single administration, day 2): significant reductions | number of platelets (PLT) ([5]; 111 MBq single administration, day 7): significant reduction | recovery of number of platelets [5, 13]: recovered to normal on day 14 | number of white blood cells (WBC) ([5]; 111 and 148 MBq single administration, days 7 and 14): significant reductions | recovery of number of red blood cells ([5]; 148 MBq single administration): recovered to normal on day 14 | number of red blood cells (RBC) ([5]; 148 MBq single administration, day 7): significant reduction | number of platelets (PLT) ([5]; 148 MBq single administration, days 2 and 7): significant reductions | effect on CD133-positive cells in tumors [6]: reduce CD133-positive cells in tumors | body weight loss [7, 12]: No body weight loss was observed | recovery of body weight [7, 13]: returned to normal body weight by day 14 | body weight compared to the control group ([7]; 111 and 148 MBq single administration, day 7): significantly reduced | tumor growth compared to the control group ([8]; 37 MBq four times (37 MBq×4)): significantly greater inhibition effect of tumor growth | mice with tumors nearly invisible on day 39 ([8]; 37 MBq four-time administration (37 MBq×4), day 39): 6 cases among 7 mice | rate of tumor volume ratio to that of the control group on day 39 ([8]; 37 MBq four-time administration (37 MBq×4; days 0, 7, 21, 28), i.v., day 39): 0.04 | rate of tumor volume ratio to tumor volume ratio of the control group on day 39 ([8]; fifth of five printed values, 148 MBq, day 39): 0.14 | rate of tumor volume ratio to tumor volume ratio of the control group on day 39 ([8]; first of five printed values, presumably 18.5 MBq, day 39): 0.82 | rate of tumor volume ratio to tumor volume ratio of the control group on day 39 ([8]; fourth of five printed values, presumably 111 MBq, day 39): 0.14 | rate of tumor volume ratio to tumor volume ratio of the control group on day 39 ([8]; second of five printed values, presumably 37 MBq, day 39): 0.31 | dose dependence of antitumor effect ([8]; single administration 18.5-148 MBq): dose-dependent antitumor effect, showing a plateau at 111 MBq | tumor growth compared to the control group ([8]; single administration at 37, 74, 111 and 148 MBq, 39 days): significantly inhibited tumor growth | tumor growth compared to the control group ([8]; single administration of 18.5 MBq): inhibited tumor growth compared to the control group, but showed no significant difference | rate of tumor volume ratio to tumor volume ratio of the control group on day 39 ([8]; third of five printed values, presumably 74 MBq, day 39): 0.28 | estimated irradiation doses to liver, red bone marrow and ovary in human [9]: lower than the acceptable dose
